Active and inactive are the calls of the source. The calls are words filed in the database; no cut-off is given here.
Key:
[1] = biological target: T1, Protein cereblon/Hepatocyte growth factor receptor (Homo sapiens, UniProt P08581+Q96SW2); assay: PROTAC activity at c-Met/CRBN in human EBC-1 cells assessed as induction of c-Met degradation at 100 nM incubated for 24 hrs by Western blotting analysis relative to control; format: cell-based
[2] = biological target: T1, Protein cereblon/Hepatocyte growth factor receptor; assay: PROTAC activity at c-Met/CRBN in human A549 cells assessed as induction of c-Met degradation at 100 nM incubated for 24 hrs by Western blotting analysis relative to control; format: cell-based
[3] = biological target: T1, Protein cereblon/Hepatocyte growth factor receptor; assay: PROTAC activity at c-Met/CRBN in human HCT-116 cells assessed as induction of c-Met degradation at 100 nM incubated for 24 hrs by Western blotting analysis relative to control; format: cell-based
EBC-1 [4] = assay: Antiproliferative activity against human EBC-1 cells assessed as cell viability incubated for 72 hrs by MTT assay; format: functional, cell-based; conditions: EBC-1, 72 h
EBC-1 [5] = assay: Antitumor activity against human EBC-1 cells xenografted BALB/c nude mouse assessed as reduction in tumor volume at 20 mg/kg, ip administered for 7 days; format: functional; parameters: scale not given: the % may be the effect or the level left; conditions: time 7 day
MKN-45 = assay: Antiproliferative activity against human MKN-45 cells assessed as cell viability incubated for 72 hrs by MTT assay; format: functional, cell-based; conditions: MKN-45, 72 h
A549 = assay: Antiproliferative activity against human A549 cells assessed as cell viability incubated for 72 hrs by MTT assay; format: functional, cell-based; conditions: A549, 72 h
HCT-116 = assay: Antiproliferative activity against human HCT-116 cells assessed as cell viability incubated for 72 hrs by MTT assay; format: functional, cell-based; conditions: HCT-116, 72 h
Hs746T = assay: Antiproliferative activity against human Hs746T cells assessed as cell viability incubated for 72 hrs by MTT assay; format: functional, cell-based

T1 sequence (P08581 25-1390 limits assumed): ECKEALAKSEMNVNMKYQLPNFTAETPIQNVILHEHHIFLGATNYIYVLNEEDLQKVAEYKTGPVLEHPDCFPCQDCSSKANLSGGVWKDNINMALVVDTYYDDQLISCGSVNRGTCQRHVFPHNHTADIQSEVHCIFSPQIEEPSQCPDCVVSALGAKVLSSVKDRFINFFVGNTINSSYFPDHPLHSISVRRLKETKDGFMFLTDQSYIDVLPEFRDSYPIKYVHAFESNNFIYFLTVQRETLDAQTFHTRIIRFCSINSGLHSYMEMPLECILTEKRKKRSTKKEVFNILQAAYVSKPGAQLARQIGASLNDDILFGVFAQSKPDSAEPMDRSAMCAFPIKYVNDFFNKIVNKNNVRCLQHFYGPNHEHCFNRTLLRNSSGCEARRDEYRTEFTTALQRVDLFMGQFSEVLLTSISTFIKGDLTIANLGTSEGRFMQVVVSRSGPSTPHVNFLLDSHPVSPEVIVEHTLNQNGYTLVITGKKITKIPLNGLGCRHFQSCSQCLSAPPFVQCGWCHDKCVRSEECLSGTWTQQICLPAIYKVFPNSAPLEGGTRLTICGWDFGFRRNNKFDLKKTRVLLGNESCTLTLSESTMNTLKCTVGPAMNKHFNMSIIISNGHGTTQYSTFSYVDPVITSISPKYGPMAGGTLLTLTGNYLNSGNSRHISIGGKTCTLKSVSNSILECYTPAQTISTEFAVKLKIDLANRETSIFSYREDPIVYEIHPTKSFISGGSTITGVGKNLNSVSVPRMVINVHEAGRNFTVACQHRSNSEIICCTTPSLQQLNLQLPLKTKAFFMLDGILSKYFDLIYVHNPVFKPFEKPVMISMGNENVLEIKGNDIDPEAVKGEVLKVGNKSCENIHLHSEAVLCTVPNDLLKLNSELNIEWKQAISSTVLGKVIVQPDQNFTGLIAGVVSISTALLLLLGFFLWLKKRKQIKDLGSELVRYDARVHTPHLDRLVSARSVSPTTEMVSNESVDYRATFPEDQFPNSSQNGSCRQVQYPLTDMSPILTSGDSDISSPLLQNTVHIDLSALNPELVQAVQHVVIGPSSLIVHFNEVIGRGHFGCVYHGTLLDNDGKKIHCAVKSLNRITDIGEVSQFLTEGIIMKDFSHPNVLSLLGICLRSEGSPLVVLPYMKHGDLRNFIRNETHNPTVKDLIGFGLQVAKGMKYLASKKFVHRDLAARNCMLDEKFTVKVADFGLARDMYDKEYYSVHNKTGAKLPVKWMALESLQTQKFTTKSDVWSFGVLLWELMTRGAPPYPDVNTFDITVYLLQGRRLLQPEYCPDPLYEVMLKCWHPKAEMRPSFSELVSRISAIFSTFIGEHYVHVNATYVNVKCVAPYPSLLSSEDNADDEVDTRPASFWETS
T1 sequence (Q96SW2 whole entry partner): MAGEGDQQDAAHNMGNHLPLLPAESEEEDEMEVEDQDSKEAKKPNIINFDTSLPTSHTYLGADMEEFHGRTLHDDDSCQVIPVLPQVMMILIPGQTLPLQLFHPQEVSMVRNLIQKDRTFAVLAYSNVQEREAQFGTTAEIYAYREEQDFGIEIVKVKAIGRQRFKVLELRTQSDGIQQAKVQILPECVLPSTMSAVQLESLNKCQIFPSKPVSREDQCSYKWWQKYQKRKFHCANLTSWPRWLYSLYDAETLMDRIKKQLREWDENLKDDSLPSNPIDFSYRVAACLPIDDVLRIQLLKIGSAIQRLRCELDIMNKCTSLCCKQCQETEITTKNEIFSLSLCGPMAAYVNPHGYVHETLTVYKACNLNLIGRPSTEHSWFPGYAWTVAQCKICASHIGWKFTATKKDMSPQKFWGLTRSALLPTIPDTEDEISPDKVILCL

Row | SMILES | Activity [1] | Activity [2] | Activity [3] | other results
1 | COc1ccc(C(=O)N2CC3CC(CN(C(=O)CN4CCC(COc5cnc(-c6cccc(Cn7nc(-c8cccc(C#N)c8)ccc7=O)c6)nc5)CC4)C3)C2)cc1N1CCC(=O)NC1=O | inactive | inactive | inactive | –
2 | COc1ccc(C(=O)N2CCC3(CC2)CN(C(=O)CN2CCC(COc4cnc(-c5cccc(Cn6nc(-c7cccc(C#N)c7)ccc6=O)c5)nc4)CC2)C3)cc1N1CCC(=O)NC1=O | 37.7% | inactive | inactive | –
3 | CN1CCC(COc2cnc(-c3cccc(Cn4nc(-c5cccc(C#N)c5)ccc4=O)c3)nc2)CC1 [TEPOTINIB] | – | – | – | IC50 (EBC-1 [4]): 12 nM; Activity (EBC-1 [5]): 74.5%; IC50 (MKN-45): 63 nM; IC50 (A549): 13500 nM; IC50 (HCT-116): 4940 nM; IC50 (Hs746T): 38 nM
4 | N#Cc1cccc(-c2ccc(=O)n(Cc3cccc(-c4ncc(OCC5CCN(C(=O)C6c7ccccc7-c7ccccc76)CC5)cn4)c3)n2)c1 | 13.4% | inactive | inactive | –
5 | N#Cc1cccc(-c2ccc(=O)n(Cc3cccc(-c4ncc(OCC5CCN(C(=O)CCCCNC(=O)C6CC7C=CC6C7)CC5)cn4)c3)n2)c1 (stereo not given) | 12.4% | inactive | inactive | –
6 | CC(C)Cc1ccc([C@H](C)C(=O)NCCCCC(=O)N2CCC(COc3cnc(-c4cccc(Cn5nc(-c6cccc(C#N)c6)ccc5=O)c4)nc3)CC2)cc1 | inactive | inactive | inactive | –
7 | N#Cc1cccc(-c2ccc(=O)n(Cc3cccc(-c4ncc(OCC5CCN(C(=O)CCCCNC(=O)CC67C[C@H]8C[C@@H](C6)C[C@@H](C7)C8)CC5)cn4)c3)n2)c1 | 2.8% | inactive | inactive | –
8 | N#Cc1cccc(-c2ccc(=O)n(Cc3cccc(-c4ncc(OCC5CCN(C(=O)C(c6ccccc6)c6ccccc6)CC5)cn4)c3)n2)c1 | 2.7% | inactive | inactive | –
9 | COc1ccc(C(=O)NCCCCN2CCC(COc3cnc(-c4cccc(Cn5nc(-c6cccc(C#N)c6)ccc5=O)c4)nc3)CC2)cc1N1CCC(=O)NC1=O | inactive | inactive | inactive | –
10 | N#Cc1cccc(-c2ccc(=O)n(Cc3cccc(-c4ncc(OCC5CCN(C(=O)CCCCNC(=O)C(C6CCCCC6)C6CCCCC6)CC5)cn4)c3)n2)c1 | 0.9% | inactive | inactive | –
11 | N#Cc1cccc(-c2ccc(=O)n(Cc3cccc(-c4ncc(OCC5CCN(C(=O)C[C@]67CC8CC(C[C@H](C8)C6)C7)CC5)cn4)c3)n2)c1 | 1.5% | inactive | inactive | –
12 | COc1ccc(C(=O)N2CCC3(CCN(C(=O)CCCCN4CCC(COc5cnc(-c6cccc(Cn7nc(-c8cccc(C#N)c8)ccc7=O)c6)nc5)CC4)CC3)CC2)cc1N1CCC(=O)NC1=O | 83.7% | inactive | inactive | –
13 | N#Cc1cccc(-c2ccc(=O)n(Cc3cccc(-c4ncc(OCC5CCN(C(=O)CCCCNC(=O)C6c7ccccc7-c7ccccc76)CC5)cn4)c3)n2)c1 | 4.1% | inactive | inactive | –
14 | N#Cc1cccc(-c2ccc(=O)n(Cc3cccc(-c4ncc(OCC5CCN(C(=O)C6CC7C=CC6C7)CC5)cn4)c3)n2)c1 (stereo not given) | 22.4% | inactive | inactive | –
15 | COc1ccc(C(=O)N2CC3CN(C(=O)CN4CCC(COc5cnc(-c6cccc(Cn7nc(-c8cccc(C#N)c8)ccc7=O)c6)nc5)CC4)CC3C2)cc1N1CCC(=O)NC1=O (stereo not given) | inactive | inactive | inactive | –
16 | COc1ccc(C(=O)N2CCN(C(=O)CN3CCC(COc4cnc(-c5cccc(Cn6nc(-c7cccc(C#N)c7)ccc6=O)c5)nc4)CC3)CC2)cc1N1CCC(=O)NC1=O | inactive | inactive | inactive | –
17 | N#Cc1cccc(-c2ccc(=O)n(Cc3cccc(-c4ncc(OCC5CCN(C(=O)CCCCNC(=O)C(c6ccccc6)c6ccccc6)CC5)cn4)c3)n2)c1 | 4.4% | inactive | inactive | –
18 | COc1ccc(C(=O)N2CCC3(CCN(C(=O)CN4CCC(COc5cnc(-c6cccc(Cn7nc(-c8cccc(C#N)c8)ccc7=O)c6)nc5)CC4)C3)CC2)cc1N1CCC(=O)NC1=O | 74.6% | inactive | inactive | –
19 | COc1ccc(C(=O)N2CCC3(CCN(C(=O)CN4CCC(COc5cnc(-c6cccc(Cn7nc(-c8cccc(C#N)c8)ccc7=O)c6)nc5)CC4)C3)C2)cc1N1CCC(=O)NC1=O (stereo not given) | 54.1% | inactive | inactive | –
20 | N#Cc1cccc(-c2ccc(=O)n(Cc3cccc(-c4ncc(OCC5CCN(C(=O)C(C6CCCCC6)C6CCCCC6)CC5)cn4)c3)n2)c1 | inactive | inactive | inactive | –
21 | COc1ccc(C(=O)N2CCC3(CCN(C(=O)CCCCCN4CCC(COc5cnc(-c6cccc(Cn7nc(-c8cccc(C#N)c8)ccc7=O)c6)nc5)CC4)CC3)CC2)cc1N1CCC(=O)NC1=O | 79.1% | inactive | inactive | –
22 | CC(C)Cc1ccc([C@H](C)C(=O)N2CCC(COc3cnc(-c4cccc(Cn5nc(-c6cccc(C#N)c6)ccc5=O)c4)nc3)CC2)cc1 | 23.3% | inactive | inactive | –
23 | COc1ccc(C(=O)NCCCCCCN2CCC(COc3cnc(-c4cccc(Cn5nc(-c6cccc(C#N)c6)ccc5=O)c4)nc3)CC2)cc1N1CCC(=O)NC1=O | inactive | inactive | inactive | –
24 | COc1ccc(C(=O)N2CCC3(CCN(C(=O)CCN4CCC(COc5cnc(-c6cccc(Cn7nc(-c8cccc(C#N)c8)ccc7=O)c6)nc5)CC4)CC3)CC2)cc1N1CCC(=O)NC1=O | 85.6% | inactive | inactive | –
